Data taken from patent US10501481B2, “Heterocyclic compounds and their use in preventing or treating bacterial infections” (priority 2015, dated 2019).
Converted amounts (≈) assume the structure as drawn. Read-outs that look alike come from different tables or passages of the source.

What was measured:
[1] = tested on: P. aeruginosa UFR90 (derepressed AmpC, OprD−); experiment: MIC broth microdilution, alone and synergy with ceftazidime; details: Pseudomonas aeruginosa, read-out: MIC CAZ
[2] = tested on: E. coli 190317 (TEM-1, SHV-12, CTX-M-15, OXA-1); experiment: as above; details: for MIC: Escherichia coli; for MIC of CAZ in combination with compound at 4 μg/mL: strain 190317, compound fixed at 4 μg/mL
[3] = tested on: K. pneumoniae UFR68 (TEM-1, SHV-11, CTX-M-15, KPC-3); experiment: as above; details: Klebsiella pneumoniae, read-out: MIC CAZ
[4] = tested on: E. coli 131119 (TEM-1, OXA-48); experiment: as above; details: Escherichia coli
[5] = tested on: E. coli UFR32 (TEM-1, VEB-1, OXA-10); experiment: as above; details: Escherichia coli, read-out: MIC CAZ
[6] = tested on: E. cloacae 260508 (TEM-1, CTX-M-15); experiment: as above; details: Enterobacter cloacae, read-out: MIC CAZ
[7] = tested on: K. pneumoniae 160143 (TEM-1, SHV-1, CTX-M-15, KPC-2, OXA-1); experiment: as above; details: Klebsiella pneumoniae, read-out: MIC CAZ
[8] = tested on: K. pneumoniae 6299 (TEM-1, SHV-11, OXA-163); experiment: as above; details: for MIC: Klebsiella pneumoniae
[9] = tested on: E. cloacae UFR70 (TEM-1, CTX-M-15, CMY-2, OXA-1, Porin loss); experiment: as above; details: Enterobacter cloacae, read-out: MIC CAZ
[10] = tested on: E. coli UFR52 (TEM-1, SHV-12, IMP-8); experiment: as above; details: Escherichia coli, read-out: MIC CAZ
[11] = tested on: P. aeruginosa UFR35 (OXA-23); experiment: as above; details: Pseudomonas aeruginosa, read-out: MIC CAZ
[12] = tested on: K. pneumoniae UFR77 (CMY-2); experiment: as above; details: Klebsiella pneumoniae, read-out: MIC CAZ
[13] = tested on: K. pneumoniae UFR24 (TEM-1, SHV-2, SHV-11, OXA-1, OXA-48, OXA-47); experiment: as above; details: Klebsiella pneumoniae, read-out: MIC CAZ
[14] = tested on: K. pneumoniae 200047 (TEM-1, SHV-32, CTX-M-15, OXA-1); experiment: as above; details: Klebsiella pneumoniae, read-out: MIC CAZ
[15] = tested on: E. cloacae P99 (AmpC); experiment: as above; details: for MIC: Enterobacter cloacae; for MIC of CAZ in combination with compound at 4 μg/mL: strain P99, compound fixed at 4 μg/mL
[16] = tested on: K. oxytoca UFR21 (TEM-1, CTX-M-15, OXA-48); experiment: as above; details: Klebsiella oxytoca, read-out: MIC CAZ
[17] = tested on: C. murliniae 210102 (VIM-4); experiment: as above; details: read-out: MIC CAZ
[18] = tested on: E. coli UFR18 (CTX-M-15, OXA-204); experiment: as above; details: Escherichia coli, read-out: MIC CAZ
[19] = tested on: E. coli RGN238 (OXA-1); experiment: as above; details: Escherichia coli
[20] = tested on: P. aeruginosa CIP107051 (TEM-24); experiment: as above; details: for MIC: Pseudomonas aeruginosa; for MIC of CAZ in combination with compound at 4 μg/mL: strain CIP107051, compound fixed at 4 μg/mL
[21] = tested on: E. coli UFR74 (SHV-1, DHA-1); experiment: as above; details: Escherichia coli, read-out: MIC CAZ
[22] = tested on: K. pneumoniae BAA-1898 (TEM-1, SHV-11, SHV-12, KPC-2); experiment: microbe, parasite or virus in culture; assay type: cell-based; details: for MIC: Klebsiella pneumoniae; for MIC of CAZ in combination with compound at 4 μg/mL: strain BAA-1898, compound fixed at 4 μg/mL
[23] = tested on: E. cloacae UFR38 (CTX-M-15, NDM-1); experiment: MIC broth microdilution, alone and synergy with ceftazidime; details: Enterobacter cloacae, read-out: MIC CAZ
[24] = tested on: E. coli UFR61O (TEM-1, KPC-2); experiment: as above; details: Escherichia coli, read-out: MIC CAZ
[25] = tested on: P. aeruginosa UFR92 (derepressed AmpC, OprD−); experiment: as above; details: Pseudomonas aeruginosa, read-out: MIC CAZ
[26] = tested on: P. aeruginosa CIP105250 (OXA-15); experiment: MIC broth microdilution, compounds alone; details: Pseudomonas aeruginosa, CIP105250, read-out: MIC compounds of the invention alone
[27] = target: T1, P99 AmpC (Enterobacter cloacae, UniProt P05364); experiment: β-lactamase inhibitory activity, nitrocefin hydrolysis; assay type: biochemical; details: class (C); 30 min pre-incubation; nitrocefin 200 μM
T1 construct: made in house; host or cells: E. coli
T1 sequence (P05364 21-381): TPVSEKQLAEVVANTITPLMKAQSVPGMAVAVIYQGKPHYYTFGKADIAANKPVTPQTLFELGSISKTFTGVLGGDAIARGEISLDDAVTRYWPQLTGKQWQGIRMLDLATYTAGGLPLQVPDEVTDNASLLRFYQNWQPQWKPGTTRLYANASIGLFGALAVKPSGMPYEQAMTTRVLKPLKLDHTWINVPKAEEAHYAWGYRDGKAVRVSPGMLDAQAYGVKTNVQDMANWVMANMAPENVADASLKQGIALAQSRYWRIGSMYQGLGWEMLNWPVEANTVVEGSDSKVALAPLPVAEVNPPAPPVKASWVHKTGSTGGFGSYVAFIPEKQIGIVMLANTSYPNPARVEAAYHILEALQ
Description: (§1) Enzyme activity was monitored by spectrophotometric measurement of nitrocefin (NCF-TOKU-E, N005) hydrolysis at 485 nm, at room temperature and in assay buffer A: 100 mM Phosphate pH7, 2% glycerol and 0.1 mg/mL Bovine serum albumin (Sigma, B4287). […] To a transparent polystyrene plate (Corning, 3628) were added in each well 5 μL DMSO or inhibitor dilutions in DMSO and 80 μL enzyme in buffer A. Plates were immediately read at 485 nm in a microplate spectrophotometer (BioTek, PowerWave HT) to enable background subtraction. After 30 min of pre-incubation at room temperature, 15 μL of NCF (200 μM final) were finally added in each well. Final enzyme concentrations were 0.1 nM (TEM-1), 0.075 nM (SHV-1), 0.4 nM (CTX-M-15), 1 nM (KPC-2), 0.2 nM (P99 AmpC), 0.2 nM (CMY-37), 0.4 nM (AmpC P. aeruginosa), 0.2 nM (OXA-1), 1.2 nM (OXA-11), 0.4 nM (OXA-15) and 0.3 nM (OXA-48). After 20 min incubation at room temperature, plates were once again read at 485 nm. Enzyme activity was obtained by subtracting the final signal by the background, and was converted to enzyme inhibition using non inhibited wells. IC50 curves were fitted to a classical Langmuir equilibrium model with Hill slope using XLFIT (IDBS).

[28] = target: T2, CTX-M-15 (Escherichia coli, UniProt Q9EXV5); experiment: as above; assay type: biochemical
T2 construct: made in house; host or cells: E. coli
T2 sequence (Q9EXV5 entry or part of it): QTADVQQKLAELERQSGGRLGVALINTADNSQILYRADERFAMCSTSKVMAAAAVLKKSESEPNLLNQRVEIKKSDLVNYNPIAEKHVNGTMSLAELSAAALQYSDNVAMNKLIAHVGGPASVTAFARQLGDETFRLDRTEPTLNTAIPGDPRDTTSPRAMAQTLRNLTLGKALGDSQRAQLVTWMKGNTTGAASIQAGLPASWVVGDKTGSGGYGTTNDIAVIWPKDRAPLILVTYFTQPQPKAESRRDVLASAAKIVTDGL
Description: as §1

[29] = target: T3, OXA-1 (Escherichia coli, UniProt P13661); experiment: as above; assay type: biochemical
T3 construct: made in house; host or cells: E. coli
T3 sequence (P13661 26-276): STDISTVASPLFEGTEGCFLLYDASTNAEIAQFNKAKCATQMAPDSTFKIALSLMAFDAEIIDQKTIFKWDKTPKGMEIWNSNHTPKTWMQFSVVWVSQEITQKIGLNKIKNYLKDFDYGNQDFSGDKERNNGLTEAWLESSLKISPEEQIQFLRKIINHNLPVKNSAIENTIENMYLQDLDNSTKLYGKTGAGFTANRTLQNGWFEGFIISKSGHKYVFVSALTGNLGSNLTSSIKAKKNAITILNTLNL
Description: as §1

[30] = target: T4, KPC-2 (Klebsiella pneumoniae, UniProt Q9F663); experiment: as above; assay type: biochemical
T4 construct: made in house; host or cells: E. coli
T4 sequence (Q9F663 25-293 limits assumed): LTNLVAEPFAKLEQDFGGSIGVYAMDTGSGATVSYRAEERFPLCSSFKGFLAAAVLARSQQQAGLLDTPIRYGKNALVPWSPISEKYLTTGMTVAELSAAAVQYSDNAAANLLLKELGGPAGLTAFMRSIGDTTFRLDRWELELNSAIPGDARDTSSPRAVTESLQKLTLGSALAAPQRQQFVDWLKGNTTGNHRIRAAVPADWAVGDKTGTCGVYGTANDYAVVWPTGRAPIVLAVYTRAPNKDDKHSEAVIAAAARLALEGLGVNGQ
Description: as §1

[31] = target: T5, OXA-15 (Pseudomonas aeruginosa, UniProt Q51574); experiment: as above; assay type: biochemical
T5 construct: made in house; host or cells: E. coli
T5 sequence (Q51574 22-275): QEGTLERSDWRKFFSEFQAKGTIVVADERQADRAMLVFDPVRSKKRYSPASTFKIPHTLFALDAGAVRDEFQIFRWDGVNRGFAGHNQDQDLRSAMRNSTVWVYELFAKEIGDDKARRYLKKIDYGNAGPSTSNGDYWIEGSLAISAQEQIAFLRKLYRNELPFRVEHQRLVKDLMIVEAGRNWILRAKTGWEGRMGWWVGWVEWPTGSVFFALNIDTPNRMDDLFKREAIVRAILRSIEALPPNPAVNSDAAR
Description: as §1

[32] = target: T6, OXA-48 (Klebsiella pneumoniae, UniProt Q6XEC0); experiment: as above; assay type: biochemical
T6 construct: made in house; host or cells: E. coli
T6 sequence (Q6XEC0 23-265 limits assumed): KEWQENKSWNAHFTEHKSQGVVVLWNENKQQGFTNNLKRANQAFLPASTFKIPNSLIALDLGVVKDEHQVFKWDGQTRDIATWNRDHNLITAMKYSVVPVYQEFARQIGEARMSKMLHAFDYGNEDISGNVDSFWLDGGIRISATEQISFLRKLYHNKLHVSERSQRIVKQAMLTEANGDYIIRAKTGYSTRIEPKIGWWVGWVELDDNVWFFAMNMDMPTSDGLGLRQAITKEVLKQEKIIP
Description: as §1

[33] = target: T7, TEM-1 (Escherichia coli, UniProt P62593); experiment: as above; assay type: biochemical; details: class (A); 30 min pre-incubation; nitrocefin 200 μM
T7 construct: made in house; host or cells: E. coli
T7 sequence (P62593 24-286 limits assumed): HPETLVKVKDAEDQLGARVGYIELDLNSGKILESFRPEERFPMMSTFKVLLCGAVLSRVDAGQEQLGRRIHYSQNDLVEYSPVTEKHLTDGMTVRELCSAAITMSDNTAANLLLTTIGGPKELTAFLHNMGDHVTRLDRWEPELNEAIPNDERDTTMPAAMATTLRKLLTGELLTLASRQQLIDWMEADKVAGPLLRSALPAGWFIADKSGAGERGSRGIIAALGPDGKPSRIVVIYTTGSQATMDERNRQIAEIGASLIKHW
Description: as §1

[34] = target: T8, OXA-11 (Pseudomonas aeruginosa, UniProt Q06778); experiment: as above; assay type: biochemical
T8 construct: made in house; host or cells: E. coli
T8 sequence (Q06778 21-266): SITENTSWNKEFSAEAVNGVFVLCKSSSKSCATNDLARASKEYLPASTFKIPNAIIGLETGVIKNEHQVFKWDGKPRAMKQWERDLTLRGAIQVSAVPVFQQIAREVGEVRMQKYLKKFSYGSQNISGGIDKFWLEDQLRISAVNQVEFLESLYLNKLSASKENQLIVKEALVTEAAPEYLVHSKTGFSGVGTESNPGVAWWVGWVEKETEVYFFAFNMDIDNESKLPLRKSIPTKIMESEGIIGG
Description: as §1

[35] = target: T9, SHV-1 (Klebsiella pneumoniae, UniProt P0AD64); experiment: as above; assay type: biochemical
T9 construct: made in house; host or cells: E. coli
T9 sequence (P0AD64 22-286): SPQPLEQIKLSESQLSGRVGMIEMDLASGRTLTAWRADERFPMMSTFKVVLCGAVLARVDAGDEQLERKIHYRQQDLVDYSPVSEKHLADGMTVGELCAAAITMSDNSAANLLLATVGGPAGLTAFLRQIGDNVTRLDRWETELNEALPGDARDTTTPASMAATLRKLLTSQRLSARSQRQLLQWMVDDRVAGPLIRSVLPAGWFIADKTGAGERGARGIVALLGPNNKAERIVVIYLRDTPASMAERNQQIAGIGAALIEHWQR
Description: as §1

[36] = target: AmpC P. aeruginosa (Pseudomonas aeruginosa, UniProt P24735); experiment: biochemical
Chain of AmpC P. aeruginosa (P24735 27-397): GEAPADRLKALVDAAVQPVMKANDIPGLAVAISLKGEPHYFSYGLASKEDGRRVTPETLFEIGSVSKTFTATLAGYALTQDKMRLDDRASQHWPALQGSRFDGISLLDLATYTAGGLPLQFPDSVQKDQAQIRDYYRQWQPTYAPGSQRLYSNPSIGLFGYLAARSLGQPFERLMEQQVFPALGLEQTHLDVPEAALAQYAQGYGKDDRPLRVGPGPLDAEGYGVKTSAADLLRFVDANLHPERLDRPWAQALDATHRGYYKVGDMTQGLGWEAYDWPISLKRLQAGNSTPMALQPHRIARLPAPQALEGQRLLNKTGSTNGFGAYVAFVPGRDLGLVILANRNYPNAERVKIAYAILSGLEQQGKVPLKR
Description: Enzyme activity was monitored by spectrophotometric measurement of nitrocefin (NCF-TOKU-E, N005) hydrolysis at 485 nm, at room temperature and in assay buffer A: 100 mM Phosphate pH7, 2% glycerol and 0.1 mg/mL Bovine serum albumin (Sigma, B4287). Enzymes were cloned in E. coli expression vector, expressed and purified in house using classical procedures. To a transparent polystyrene plate (Corning, 3628) were added in each well 5 μL DMSO or inhibitor dilutions in DMSO and 80 μL enzyme in buffer A. Plates were immediately read at 485 nm in a microplate spectrophotometer (BioTek, PowerWave HT) to enable background subtraction. After 30 min of pre-incubation at room temperature, 15 μL of NCF (200 μM final) were finally added in each well. Final enzyme concentrations were 0.1 nM (TEM-1), 0.075 nM (SHV-1), 0.4 nM (CTX-M-15), 1 nM (KPC-2), 0.2 nM (P99 AmpC), 0.2 nM (CMY-37), 0.4 nM (AmpC P. aeruginosa), 0.2 nM (OXA-1), 1.2 nM (OXA-11), 0.4 nM (OXA-15) and 0.3 nM (OXA-48). After 20 min incubation at room temperature, plates were once again read at 485 nm. Enzyme activity was obtained by subtracting the final signal by the background, and was converted to enzyme inhibition using non inhibited wells. IC50 curves were fitted to a classical Langmuir equilibrium model with Hill slope using XLFIT (IDBS).

[37] = read-out: MIC compounds of the invention alone
[38] = CIP107051, read-out: MIC compounds of the invention alone
[39] = BAA1898, read-out: MIC compounds of the invention alone

In the case of `CC(C)(O/N=C(\C(=O)N[C@@H]1C(=O)N2C(C(=O)[O-])=C(C[n+]3ccccc3)CS[C@H]12)c1csc(N)n1)C(=O)O` [CAZ, ceftazidime, reference compound], the MIC [1] is reported as 64 mg/L, the MIC ([2]; read-out: MIC CAZ) is reported as 128 mg/L and the MIC [3] is reported as greater than 128 mg/L. For the same molecule, the MIC ([4]; read-out: MIC CAZ) was 0.5 mg/L, the MIC [5] was greater than 128 mg/L and the MIC [6] was 128 mg/L. For the same molecule, the MIC [7] was 128 mg/L, the MIC ([8]; read-out: MIC CAZ) was 256 mg/L and the MIC [9] was greater than 128 mg/L. For the same molecule, the MIC [10] was greater than 128 mg/L, the MIC [11] was 2 mg/L and the MIC [12] was 64 mg/L. It also gave an MIC [13] greater than 128 mg/L, an MIC [14] of 128 mg/L and an MIC ([15]; read-out: MIC CAZ) of 128 mg/L. For the same molecule, the MIC [16] was 128 mg/L, the MIC [17] was greater than 128 mg/L and the MIC [18] was greater than 128 mg/L. It also gave an MIC ([19]; read-out: MIC CAZ) of 0.5 mg/L, an MIC ([20]; CIP107051, read-out: MIC CAZ) of 256 mg/L and an MIC [21] of 64 mg/L. The MIC ([22]; BAA1898, read-out: MIC CAZ) was 256 mg/L (≈ 468 µM), the MIC [23] was greater than 128 mg/L and the MIC [24] was 128 mg/L. The MIC [25] was 32 mg/L.

For `CC(C)(C)OC(=O)NCCn1c2c(sc1=O)C1CN(C2)C(=O)N1OS(=O)(=O)[O-].[Na+]` (stereo not drawn) [Example 3, Sodium [5-(2-(tert-butoxycarbonylamino)ethyl)-4,9-dioxo-3-thia-5,8,10-triaza-tricyclo[6.2.1.0^2.6]undec-2(6)-en-10-yl] sulfate], the MIC [26] was greater than 32 mg/L, the IC50 [27] was 0.0059 µM and the MIC [2, 37] was greater than 32 mg/L. The “MIC of CAZ in combination with compound at 4 μg/mL” value (shortened to “MIC of CAZ in combination”) [2] was 32 mg/L, the IC50 [28] was 0.00049 µM and the IC50 [29] was 0.13 µM. It also gave an IC50 [30] of 0.0034 µM, an MIC [4, 37] greater than 32 mg/L and an IC50 [31] of 0.097 µM. It also gave an MIC [8, 37] greater than 32 mg/L, an IC50 [32] of 0.0017 µM and an IC50 [33] of 0.0058 µM. For the same molecule, the IC50 [34] was 0.016 µM, the IC50 [35] was 0.02 µM and the IC50 [36] was 0.2 µM. For the same molecule, the MIC [15, 37] was greater than 32 mg/L, the “MIC of CAZ in combination” value [15] was 128 mg/L and the MIC [19, 37] was greater than 32 mg/L. For the same molecule, the MIC [20, 38] was greater than 32 mg/L, the “MIC of CAZ in combination” value [20] was 64 mg/L and the MIC [22, 39] was greater than 32 mg/L. The “MIC of CAZ in combination” value [22] was greater than 128 mg/L.

Molecule `N=C(N)NCCn1c2c(sc1=O)C1CN(C2)C(=O)N1OS(=O)(=O)[O-].[Na+]` (stereo not drawn) [Example 6, Sodium and 2,2,2-trifluoroacetate [5-(2-quanidiniumethyl)-4,9-dioxo-3-thia-5,8,10-triaza-tricyclo[6.2.1.0^2.6]undec-2(6)-en-10-yl] sulfate] has an MIC [26] of 8 mg/L, an IC50 [27] of 0.38 µM and an MIC [2, 37] of 1 mg/L. For the same molecule, the “MIC of CAZ in combination” value [2] was less than 0.25 mg/L, the IC50 [28] was 0.0054 µM and the IC50 [29] was 1.7 µM. The IC50 [30] was 0.0057 µM, the IC50 [31] was 0.12 µM and the MIC [8, 37] was greater than 32 mg/L. For the same molecule, the “MIC of CAZ in combination” value ([8]; strain 6299, compound fixed at 4 μg/mL) was no more than 0.125 mg/L, the IC50 [32] was 0.0016 µM and the IC50 [33] was 0.007 µM. It also gave an IC50 [34] of 0.13 µM, an IC50 [35] of 0.012 µM and an IC50 [36] of 1.5 µM. For the same molecule, the MIC [15, 37] was 1 mg/L, the “MIC of CAZ in combination” value [15] was less than 0.25 mg/L and the MIC [19, 37] was 4 mg/L. For the same molecule, the MIC [20, 38] was 8 mg/L, the “MIC of CAZ in combination” value [20] was 8 mg/L and the MIC [22, 39] was 16 mg/L. The “MIC of CAZ in combination” value [22] was no more than 0.125 mg/L.
